From publication PMC8073230, “Development and Verification of a Precolumn Derivatization LC-MS/MS Method for the Pharmacokinetic Study of Houttuynine of Houttuynia Essential Oil” (Molecules, 2021) come the findings set out here.

A short description of this series: Pharmacokinetic study of Hou in rats after single administration of HEO (LC-MS/MS, non-compartmental model). Conditions: for AUC(0–t) / AUC(0–∞) / C max / T 1/2 / T max / V z: Hou in rat plasma after single administration of HEO; for AUC(0–t) / AUC(0–∞) / C max / T 1/2 / T max / V z / MRT(0–t): n = 6; for MRT(0–t): Hou in rat plasma after HEO. The class given is in vivo, rat. On the procedure: The pharmacokinetics of HEO administrated to rat via gavage and injection were evaluated based on the determination of Hou blood concentration by the established LC-MS/MS approach. Furthermore, the parameters of the pharmacokinetics were calculated by a non-compartmental model using the Drug and Statistics Software (DAS), version 3.2.8.
Twelve male SD rats (200 ± 30 g) were kept in an appropriate environment for three days before the start of the experiment. Before drug administration, the rats were fasted except for free water access for 12 h. All animals were randomly divided into two groups with six animals in each group. Blood samples (0.2 mL) were withdrawn at specific time intervals (0 h, 5 min, 10 min, 15 min, 30 min, 1 h, 2 h, 3 h, 4 h, 6 h, 8 h, 12 h, and 24 h) after administration in heparinized tubes. The samples were immediately centrifuged at 3000 rpm, and kept at −20 °C in a refrigerator.
Plasma samples (100 μL) were mixed with 100 μL of DNPH (2 mg/mL), 50 μL of IS (PTD, 200 µg/mL), and 150 μL acetonitrile (containing 2% HCl) with uniform mixing, followed by vigorous vortexing for 3 min to precipitate the protein. Then, all samples were shaken in a water bath oscillator for 15 min at 45 °C. The solutions were then centrifuged. The centrifugation step was repeated once, and plasma samples of Hou were obtained and subjected to LC-MS/MS analysis.
Pharmacokinetic parameters including AUC (0–t), AUC (0–∞), MRT (0–t), MRT (0–∞), CLz and so on, were calculated using the DAS (version 3.2.8, Chinese Pharmacological Association, Beijing, China). The Cmax was obtained from the concentration–time curve. The area under the plasma concentration–time curve from zero to the time of the last measurable sample AUC (0–t)), area under the plasma concentration–time curve from zero to infinity AUC (0−∞), mean residence time from zero to the time of the last measurable sample (MRT0−t), mean residence time from zero to the time of infinity (MRT0−∞), and CLz were calculated using the DAS.

On to 3-oxo-dodecanal [Hou], for which, where the note is “Hou after HEO, gavage (oral administration)”, the “F (absolute bioavailability)” value came to 7.08%. Where the note is “Hou after HEO, injection (reference route)”, the F turned out to be 100%. For the setting “gavage”, the “AUC(0–t)” value stood at 2451.79 ± 300.01 µg·h/L, the “AUC(0–∞)” value turned out to be 2451.837 ± 432.74 µg·h/L, the C max turned out to be 222.48 ± 20.38 ng/mL and the “T 1/2” value is reported as 6.45 ± 0.94 h. Under “gavage”, the T max was found to be 3.71 ± 1.07 h and the V z was 85.81 ± 5.74 L/kg. Where the note is “injection”, the “AUC(0–t)” value was 32,693.2 ± 1320 μg/L × h, the “AUC(0–∞)” value was 34,630.466 ± 1436 μg/L × h, the C max amounted to 2010 ± 350 ng/mL and the “T 1/2” value was 5.987 ± 0.52 h. Where the note is “injection”, this substance came in with a T max of 0.033 ± 0.012 h and a V z of 5.611 ± 0.97 L/kg. Also, for the setting “Hou in rats after HEO, oral administration”, the “maximum plasma concentration (Cmax)” value was 222.48 ng/mL. Also, the “MRT(0–t)” value (first MRT line (r8), gavage) was found to be 8.914 ± 2.73 h. Besides, the “MRT(0–t)” value (first MRT line (r8), injection) is given as 7.575 ± 1.21 h. For the same substance, for the setting “second MRT line (r9), gavage”, the “MRT(0–t)” value is on record as 11.594 ± 1.85 h. Also, under “second MRT line (r9), injection”, the “MRT(0–t)” value is recorded as 9.153 ± 0.98 h.
